In one assay the test system is THP-1 cells. The assay is described as follows: Thermogenesis by fluorescent polymeric thermometer (FPT), flow cytometry. It is filed as cell-based, human. The settings on record: heme treatment for one hour. On the procedure:
In the second approach, we used fluorescent polymeric thermometer (FPT), which we synthesized in-house (see above). Parental and knockout THP-1 cells were mixed together, washed and incubated with FPT in 5% w/v glucose solution for 6 hrs. The cells were washed with PBS twice and reseeded in dishes with glass bottom that was coated with poly-lysine. The cells were imaged under Confocal Laser-Scanning Microscopy at 37° C. Alternatively, THP-1, MCF7, 293T, 7CKO, SERCA2b^−/− cells were incubated with FPT and control polymer overnight and followed with vehicle or hematin treatment for 1 hour. Then the fluorescence intensities were determined by a flow cytometer.
On the technique in general: Flow cytometry measures light scatter and fluorescence of single cells or particles in a stream.

Assay [1] concerns the target T1, HP motif peptide (Homo sapiens, UniProt Q9UPI3).
T1 construct: a synthetic 14-amino acid HP motif peptide; made in house; host or cells: chemical solid-phase synthesis (Koch Institute Biopolymers & Proteomics Core)
The assay is described as follows: Heme absorbance-shift assay with wild-type HP motif peptide. Type of assay: binding. The settings on record: 100 μM heme, various concentrations of HP motif peptide. On the procedure:
Peptide synthesis. Wild-type HP motif peptide (HPSALAQPSGLAHP) and mutant HP motif peptide (APSALAQPSGLAAP) were synthesized using solid-phase synthesis and purified using HPLC by the Biopolymers & Proteomics Core at the Koch Institute for Integrative Cancer Research.
Heme absorbance-shift assay. Hemin was prepared fresh before each experiment. Approximately 20 mg of hemin (Sigma) was placed in a fresh tube and resuspended with 1 mL of DMSO. The hemin solution was slowly diluted while mixing with 1 mL of 2× buffer C (25 mM HEPES-NaOH pH 7.8, 10 mM NaCl), and aggregated hemin was eliminated by passing the solution through a 0.2 μm filter unit. Hemin concentration was determined by diluting the filtered solution with 1× buffer C 1:100 and using the extinction coefficient of 58,400 cm^−1M^−1 at 385 nm. For each reaction, the 200 μL reaction mix containing 100 μM hemin, 25 mM HEPES-NaOH pH 7.8, 10 mM NaCl, and various concentrations of wild-type or mutant NTD protein, was placed in a transparent 96-well plate. Absorbance intensity was measured using Tecan Infinite M200 Pro microplate reader, between 330 and 550 nm using 5 nm steps. The absorbance intensity for dissolved hemin was subtracted from absorbance intensity from hemin incubated with various concentrations of protein.

Assay [2] has as its target T1, HP motif peptide. The assay is described as follows: Isothermal titration calorimetry of HP motif peptide binding to heme (one-site model). For orientation: In ITC the heat of successive injections is recorded.
Assay [3] concerns the target T2, MFSD7C-SERCA2b co-localization (Homo sapiens, UniProt Q9UPI3).
T2 construct: host or cells: THP-1 cells
The assay is described as follows: Confocal co-localization of MFSD7C and SERCA2b in THP-1 cells. It is filed as cell-based. The settings on record: 40 μM heme 1 hour, 0.89 without heme. The method, then:
FIGS. 16A-16F show Co-localization of MFSD7C and SERCA2b. […] Shown are representative images of THP-1 cells stained for MFSD7C (red), SERCA2b (green), nuclei (blue) and merged image. […] THP-1 cells were not treated or treated with 40 μM of heme for 1 hour and then stained for MFSD7C, SERCA2b and nuclei as in (FIG. 16A). Co-localization between MFSD7C and SERCA2b was quantified. Shown are representative merged images (FIG. 16B) and comparison of Pearson's correlation coefficients values with or without heme treatment (FIG. 16C) (in FIG. 16C, n=7 biologically independent samples). P-values were calculated using unpaired t-test (***p<0.05). […] THP-1 cells were stained for MFSD7C (red), ER (green), mitochondria (blue), and DNA (grey). Shown are representative single and merged images (FIG. 16D). Enlarged image of the boxed area is shown in the last panel (bottom-right). Pearson's rank correlation values between the indicated comparisons are shown (FIG. 16E). (n=3 biologically independent samples). […] THP-1 cells were incubated with FPT for 6 hours, washed, treated with or without 4 μM thapsingargin for 2 hours. The cells were washed and reseeded in poly-lysine coated glass bottom dishes. After cells attached to the glass, medium containing 40 μM heme was added. Cells in the same field were imaged immediately (0 min) and again 1 hour later. […]

For assay [4], the target named is T3, Mutant NTD (all five histidine residues in the HP repeats mutated to alanine) (Homo sapiens, UniProt Q9UPI3, H30A/H36A/H48A/H54A/H66A).
T3 construct: Plasmid harboring GST-His-tag-SUMO-NTD (amino acids 1-84); GST-His-tag-SUMO (N, cleaved yes); made in house; host or cells: Escherichia coli
T3 sequence (Q9UPI3 1-84 H30A/H36A/H48A/H54A/H66A): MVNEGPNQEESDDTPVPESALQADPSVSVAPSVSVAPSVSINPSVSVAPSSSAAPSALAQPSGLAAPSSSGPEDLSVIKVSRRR
The assay is described as follows: Heme absorbance-shift assay with mutant NTD. It is filed as binding.

T2 sequence (Q9UPI3 whole entry): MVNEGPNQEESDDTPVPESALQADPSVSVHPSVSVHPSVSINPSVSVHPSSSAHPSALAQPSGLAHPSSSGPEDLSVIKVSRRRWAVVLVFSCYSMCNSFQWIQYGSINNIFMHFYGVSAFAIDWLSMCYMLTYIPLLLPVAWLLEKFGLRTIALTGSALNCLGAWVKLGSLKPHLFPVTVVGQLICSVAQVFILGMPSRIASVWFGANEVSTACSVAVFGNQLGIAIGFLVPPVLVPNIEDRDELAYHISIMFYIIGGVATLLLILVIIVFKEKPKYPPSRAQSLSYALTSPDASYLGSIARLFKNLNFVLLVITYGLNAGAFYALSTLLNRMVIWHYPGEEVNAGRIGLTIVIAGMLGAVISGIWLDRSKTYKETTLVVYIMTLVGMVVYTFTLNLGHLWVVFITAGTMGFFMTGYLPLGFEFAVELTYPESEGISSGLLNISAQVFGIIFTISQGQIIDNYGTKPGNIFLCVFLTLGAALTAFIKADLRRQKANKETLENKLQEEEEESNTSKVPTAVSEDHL

Consider `C=CC1=C(C)c2cc3[n-]c(cc4[n-]c(cc5nc(cc1n2)C(C)=C5C=C)c(C)c4CCC(=O)O)c(CCC(=O)O)c3C.[Fe+2]` [heme], for which the “FPT fluorescence by flow cytometry” value in the assay with THP-1 cells is listed as “almost all cells had dramatically increased fluorescence”. Also, the “absorbance shift of heme (Soret band, Q band)” value on HP motif peptide [1] is “concentration-dependent increase in Soret band and Q band peaks”. Further, the “binding stoichiometry heme : HP motif peptide” value at HP motif peptide [2] is on record as “one heme bound to one HP motif peptide”. Besides, the “Pearson's correlation coefficient value of MFSD7C/SERCA2b co-localization” value in assay [3] came out at 0.67. In assay [4], the “absorbance shift of heme” value is “abolished”.

The record behind these values is US20230313199A1, “TARGET FOR MODULATING BODY MASS” (Massachusetts Institute of Technology, priority 2020, published 2023).
